pKd: −log10 of the molar value.
Experiment: Fluorescence Based Assay: The details of the KEAP1 KELCH ThermoFluor® Assay Construct are as follows: Kelch domain of human KEAP 1 (321-624 aa) was used in the assay. The protein was expressed in E. coli with 6His tag that was cleaved prior to receipt for use.ThermoFluor® experiments were carried out using instruments owned by Janssen Research and Discovery, L.L.C. through its acquisition of 3-Dimensional Pharmaceuticals, Inc. 1,8-ANS (Invitrogen) was used as a fluorescent dye. Protein (KEAP Kelch) and compound solutions were dispensed into black 384-well polypropylene PCR microplates (Abgene) and overlayed with silicone oil (1 μL, Fluka, type DC 200) to prevent evaporation.Reference wells contained KEAP Kelch without compounds, and the assay conditions were as follows: 1.1 μM (0.037mg/mL) KEAP Kelch, 80 μM 1,8-ANS, 25 mM PIPES, pH 7.0, 100 mM NaCl, 0.002% Tween-20.
In the case of `Cc1ccc(C(CC(=O)O)c2ccn3c(C(F)F)nnc3c2C)cc1CN1CC2CCCCN2c2ncc(C#N)cc2S1(=O)=O` (stereo not given), the pKd was > 9.00.
In the case of `Cc1ccc(C(CC(=O)O)c2ccc3c(nnn3CC3CC3)c2C)cc1CN1C[C@@H]2CCCCN2c2ncccc2S1(=O)=O` (stereo not given in full), the pKd was > 9.00.
With `Cc1ccc(C(CC(=O)O)c2ccc3c(nnn3CC3CC3)c2C)cc1CN1CC2(COC2)Oc2ccccc2S1(=O)=O` (stereo not given) the pKd was > 9.00.
With `Cc1cnc2c(c1)S(=O)(=O)N(Cc1cc(C(CC(=O)O)c3ccn4c(C(F)F)nnc4c3C)ccc1C)C[C@@H]1CCCCN21` (stereo not given in full) the pKd was > 9.00.
For `CC[C@@H]1CN(Cc2nc(C(CC(=O)O)c3ccc4c(nnn4C4CC4)c3C)ccc2C)S(=O)(=O)c2cccnc2O1` (stereo not given in full), the pKd was > 9.00.
In the case of `Cc1ccc(C(c2ccn3c(C(F)(F)F)nnc3c2C)C(C)(C)C(=O)O)cc1CN1CC2(CCOCC2)Oc2nc(N[C@@H](C)CCO)ccc2S1(=O)=O` (stereo not given in full), the pKd was > 9.00.
In the case of `Cc1ccc([C@H](c2ccn3c(C(F)(F)F)nnc3c2C)[C@H](C)C(=O)O)cc1CN1CC2(CC2)Oc2ncccc2S1(=O)=O`, the pKd was > 9.00.
In the case of `Cc1ccc(C(CC(=O)O)c2ccn3c(C(F)F)nnc3c2C)cc1CN1C[C@H]2CCCN2c2ncc(C#N)cc2S1(=O)=O` (stereo not given in full), the pKd was > 9.00.
In the case of `Cc1cnc([C@@H](c2ccn3c(C(F)(F)F)nnc3c2C)C(C)(C)C(=O)O)cc1CN1CC2(CCOCC2)Oc2nc(OCCN3CCCC3)c(C)cc2S1(=O)=O`, the pKd was > 9.00.
In the case of `Cc1cnc2c(c1)S(=O)(=O)N(Cc1nc([C@H](CC(=O)O)c3ccn4c(C(F)(F)F)nnc4c3C)ccc1C)C[C@@H]1CCCCN21`, the pKd was > 9.00.
For `Cc1cnc2c(c1)S(=O)(=O)N(Cc1nc([C@@H](c3ccn4c(C(F)F)nnc4c3C)C(C)(C)C(=O)O)ccc1C)CC1(CC1)O2`, the pKd was > 9.00.
With `Cc1ccc([C@@H](c2ccn3c(C(F)(F)F)nnc3c2C)C(C)(C)C(=O)O)cc1CN1CC2(CCOCC2)Oc2nc(NCCCO)ccc2S1(=O)=O` the pKd was > 9.00.
In the case of `CC[C@@H]1CN(Cc2cc([C@H](CC(=O)O)c3ccn4c(C(F)(F)F)nnc4c3)ccc2C)S(=O)(=O)c2cccnc2O1`, the pKd was > 9.00.
In the case of `Cc1ccc(C(CC(=O)O)c2ccn3c(C(F)F)nnc3c2C)cc1CN1CC2(COC2)Oc2ncccc2S1(=O)=O` (stereo not given), the pKd was > 9.00.
For `Cc1ccc([C@H](c2ccn3c(C(F)(F)F)nnc3c2C)C(C)(C)C(=O)O)cc1CN1CC2(CCOCC2)Oc2nc(OCCCOCCCO)ccc2S1(=O)=O`, the pKd was > 9.00.
With `Cc1ccc([C@H](CC(=O)O)c2ccn3c(C(F)(F)F)nnc3c2C)cc1CN1CC2(COC2)Oc2ncccc2S1(=O)=O` the pKd was > 9.00.
For `Cc1ccc([C@H](c2ccn3c(C(F)(F)F)nnc3c2C)C(C)(C)C(=O)O)cc1CN1CC2(CCOCC2)Oc2nc(OCCC3CCNCC3)c(C)cc2S1(=O)=O`, the pKd was > 9.00.
In the case of `Cc1ccc([C@@H](CC(=O)O)c2ccn3c(C(F)F)nnc3c2C)cc1CN1CC2(COC2)Oc2ncccc2S1(=O)=O`, the pKd was > 9.00.
For `Cc1ccc(C(CC(=O)O)c2ccn3c(C(F)(F)F)nnc3c2)cc1CN1C[C@@H]2CCCN2c2ncccc2S1(=O)=O` (stereo not given in full), the pKd was > 9.00.
With `Cc1ccc([C@H](CC(=O)O)c2ccn3c(C4CC4)nnc3c2C)cc1CN1CC2(CC2)Oc2ncc(F)cc2S1(=O)=O` the pKd was > 9.00.
In the case of `Cc1ccc(C(c2ccn3c(C(F)(F)F)nnc3c2C)C(C)C(=O)O)cc1CN1C[C@@H]2CCCCN2c2ncccc2S1(=O)=O` (stereo not given in full), the pKd was > 9.00.
For `Cc1ccc([C@H](c2ccn3c(C(F)(F)F)nnc3c2C)C(C)(C)C(=O)O)cc1CN1CC(C)(C)Oc2ncccc2S1(=O)=O`, the pKd was > 9.00.
In the case of `Cc1ccc([C@H](c2ccn3c(C(F)(F)F)nnc3c2C)C(C)(C)C(=O)O)cc1CN1CC2(CCOCC2)Oc2nc(N[C@H](C)CN3CCCCC3)c(C)cc2S1(=O)=O`, the pKd was > 9.00.
In the case of `Cc1ccc([C@H](CC(=O)O)c2ccc3c(nnn3C3CC3)c2C)cc1CN1C[C@H]2CCCN2c2ncccc2S1(=O)=O`, the pKd was > 9.00.
For `Cc1ccc([C@H](CC(=O)O)c2ccn3c(C(F)(F)F)nnc3c2C)nc1CN1C[C@@H]2CCCCN2c2ncccc2S1(=O)=O`, the pKd was > 9.00.
For `Cc1ccc([C@H](CC(=O)O)c2ccn3c(C(F)(F)F)nnc3c2C)cc1CN1CC2(CC2)Oc2nc(NCCO)ccc2S1(=O)=O`, the pKd was > 9.00.
In the case of `Cc1c(C(CC(=O)O)c2ccc(Cl)c(CN3CC4CCCCN4c4ncccc4S3(=O)=O)c2)ccn2c(C(F)(F)F)nnc12` (stereo not given), the pKd was > 9.00.
For `CC[C@@H]1CN(Cc2cc(C(CC(=O)O)c3cc(OC(F)F)c4c(c3)nnn4C)ccc2C)S(=O)(=O)c2cccnc2O1` (stereo not given in full), the pKd was > 9.00.
With `Cc1ccc([C@@H](c2ccn3c(C(F)F)nnc3c2C)C(C)(C)C(=O)O)cc1CN1CC2(CCOCC2)Oc2nc(OCCN3CCOCC3)ccc2S1(=O)=O` the pKd was > 9.00.
With `Cc1ccc([C@@H](CC(=O)O)c2ccn3c(C(F)F)nnc3c2C)cc1CN1C[C@@H]2CCCCN2c2ncc(C#N)cc2S1(=O)=O` the pKd was > 9.00.
For `Cc1ccc(C(CC(=O)O)c2ccn3c(C(F)(F)F)nnc3c2C)cc1CN1CC2(COC2)Oc2ccccc2S1(=O)=O` (stereo not given), the pKd was > 9.00.
With `Cc1ccc([C@H](c2ccn3c(C(F)(F)F)nnc3c2)C(C)(C)C(=O)O)cc1CN1CC2(CCOCC2)Oc2ncccc2S1(=O)=O` the pKd was > 9.00.
In the case of `Cc1ccc([C@H](CC(=O)O)c2ccc3c(nnn3C3CC3)c2C)cc1CN1C[C@H]2CCCCN2c2ncccc2S1(=O)=O`, the pKd was > 9.00.
With `Cc1ccc([C@@H](c2ccn3c(C(F)(F)F)nnc3c2C)C(C)(C)C(=O)O)cc1CN1CC2(CC2)Oc2ncccc2S1(=O)=O` the pKd was > 9.00.
For `Cc1ccc([C@H](CC(=O)O)c2ccn3c(C(F)(F)F)nnc3c2C)cc1CN1CC2(CCOCC2)Oc2ncccc2S1(=O)=O`, the pKd was > 9.00.
For `CCn1nnc2c(C)c([C@H](CC(=O)O)c3ccc(C)c(CN4C[C@H]5CCCN5c5ncccc5S4(=O)=O)n3)ccc21`, the pKd was > 9.00.
For `Cc1ccc([C@H](CC(=O)O)c2ccn3c(C(F)(F)F)nnc3c2C)nc1CN1C[C@@H]2CCCCN2c2ncc(Cl)cc2S1(=O)=O`, the pKd was > 9.00.
For `Cc1ccc([C@@H](c2ccn3c(C(F)(F)F)nnc3c2C)C(C)(C)C(=O)O)cc1CN1CC2(CCOCC2)Oc2nc(O[C@@H](C)CN3CCCCC3)c(C)cc2S1(=O)=O`, the pKd was > 9.00.
In the case of `Cc1cnc2c(c1)S(=O)(=O)N(Cc1cc(C(c3ccn4c(C5CC5)nnc4c3C)C(C)(C)C(=O)O)ccc1C)CC1(CC1)O2` (stereo not given), the pKd was > 9.00.
For `Cc1ccc([C@@H](c2ccn3c(C(F)(F)F)nnc3c2C)C(C)(C)C(=O)O)cc1CN1CC2(CC2)Oc2nc(OCCN3CC(F)C3)c(C)cc2S1(=O)=O`, the pKd was > 9.00.
For `Cc1ccc([C@@H](c2ccc3c(nnn3C3CC3)c2C)C(C)(C)C(=O)O)cc1CN1CC2(CC2)Oc2nc(N[C@@H](C)CN3CCCCC3)c(C)cc2S1(=O)=O`, the pKd was > 9.00.
With `Cc1cnc([C@@H](c2ccn3c(C(F)(F)F)nnc3c2C)C(C)(C)C(=O)O)cc1CN1CC2(CC2)Oc2nc(OCCN3CCCC3)c(C)cc2S1(=O)=O` the pKd was > 9.00.
For `Cc1ccc([C@@H](CC(=O)O)c2ccn3c(C)nnc3c2)cc1CN1C[C@H]2CCCN2c2ccccc2S1(=O)=O`, the pKd was > 9.00.
With `Cc1ccc([C@@H](CC(=O)O)c2ccc3c(nnn3CC3CC3)c2C(F)F)cc1CN1C[C@H]2CCCCN2c2ncccc2S1(=O)=O` (single isomer, unassigned) the pKd was > 9.00.
For `Cc1cnc2c(c1)S(=O)(=O)N(Cc1cc([C@@H](c3ccc4c(nnn4C4CC4)c3C)C(C)(C)C(=O)O)cnc1C)CC1(CC1)O2`, the pKd was > 9.00.
For `Cc1cnc2c(c1)S(=O)(=O)N(Cc1cc([C@@H](c3ccn4c(C(F)(F)F)nnc4c3C)C(C)(C)C(=O)O)ccc1C)CC1(COC1)O2`, the pKd was > 9.00.
With `CCn1nnc2c(C)c([C@@H](CC(=O)O)c3ccc(C)c(CN4CC5(CC5)Oc5ncccc5S4(=O)=O)n3)ccc21` the pKd was > 9.00.
With `Cc1ccc([C@@H](CC(=O)O)c2ccn3c(C(F)(F)F)nnc3c2C)cc1CN1C[C@@H]2CCC(F)(F)CN2c2ncccc2S1(=O)=O` the pKd was > 9.00.
With `Cc1cnc2c(c1)S(=O)(=O)N(Cc1cc([C@H](c3cc4cc(C)nnc4n3C)C(C)(C)C(=O)O)ccc1C)CC1(CC1)O2` the pKd was > 9.00.
In the case of `CCc1nnc2c(C)c([C@H](CC(=O)O)c3ccc(C)c(CN4C[C@H]5CCCN5c5ccccc5S4(=O)=O)c3)ccn12`, the pKd was > 9.00.
In the case of `CCn1nnc2c(C)c([C@H](CC(=O)O)c3ccc(C)c(CN4CC5(CCOCC5)Oc5ccc(F)cc5S4(=O)=O)n3)ccc21`, the pKd was > 9.00.
In the case of `Cc1ccc([C@H](CC(=O)O)c2ccn3c(C(F)(F)F)nnc3c2C)cc1CN1C[C@H]2CCCCN2c2ncc(C#N)cc2S1(=O)=O`, the pKd was > 9.00.
In the case of `Cc1ncc([C@H](c2ccn3c(C(F)(F)F)nnc3c2C)C(C)(C)C(=O)O)cc1CN1C[C@@H]2CCCCN2c2ncc(C#N)cc2S1(=O)=O`, the pKd was > 9.00.
For `Cc1ccc([C@@H](c2ccn3c(C(F)(F)F)nnc3c2C)C(C)(C)C(=O)O)cc1CN1CC2(CCOCC2)Oc2nc(CCC(=O)NC3CCC3)ccc2S1(=O)=O`, the pKd was > 9.00.
For `Cc1ccc([C@@H](c2ccn3c(C(F)(F)F)nnc3c2C)C(C)(C)C(=O)O)cc1CN1CC2(CCOCC2)Oc2nc(N[C@@H](C)CCO)ccc2S1(=O)=O`, the pKd was > 9.00.
In the case of `Cc1ccc([C@@H](c2ccn3c(C(F)(F)F)nnc3c2C)C(C)(C)C(=O)O)cc1CN1CC2(CCOCC2)Oc2nc(OCCCO)ccc2S1(=O)=O`, the pKd was > 9.00.
With `Cc1ccc([C@H](CC(=O)O)c2ccn3c(C(F)(F)F)nnc3c2C)cc1CN1C[C@H]2CCCCN2c2ccccc2S1(=O)=O` the pKd was > 9.00.
For `Cc1ccc(C(CC(=O)O)c2ccc3c(nnn3C3CC3)c2C)cc1CN1CC2(COC2)Oc2ccccc2S1(=O)=O` (stereo not given), the pKd was > 9.00.
With `Cc1ccc(C(CC(=O)O)c2ccc3c(nnn3C3CC3)c2C)cc1CN1C[C@]2(C)CCCN2c2ncccc2S1(=O)=O` (stereo not given in full) the pKd was > 9.00.
For `Cc1ccc([C@@H](c2ccn3c(C(F)(F)F)nnc3c2C)C(C)(C)C(=O)O)cc1CN1CC2(CC2)Oc2nc(OCCN3CCC3)c(C)cc2S1(=O)=O`, the pKd was > 9.00.
In the case of `Cc1cnc2c(c1)S(=O)(=O)N(Cc1cc([C@@H](c3ccn4c(C5CC5)nnc4c3C)C(C)(C)C(=O)O)ccc1C)CC1(CC1)O2`, the pKd was > 9.00.
With `Cc1cnc2c(c1)S(=O)(=O)N(Cc1cc([C@H](c3ccn4c(C(F)(F)F)nnc4c3C)C(C)(C)C(=O)O)cnc1C)CC1(CC1)O2` the pKd was > 9.00.
For `Cc1ccc(C(CC(=O)O)c2ccn3c(C(F)F)nnc3c2C)cc1CN1CC2(CCOCC2)Oc2ccc(F)cc2S1(=O)=O` (stereo not given), the pKd was > 9.00.
In the case of `Cc1ccc([C@H](CC(=O)O)c2ccn3c(C(F)(F)F)nnc3c2C)nc1CN1CC2(CC2)Oc2ncc(F)cc2S1(=O)=O`, the pKd was > 9.00.
For `Cc1cnc2c(c1)S(=O)(=O)N(Cc1cc(C(CC(=O)O)c3ccn4c(C(F)F)nnc4c3C)ccc1C)CC1(CC1)O2` (stereo not given), the pKd was > 9.00.

From ChEMBL document CHEMBL5729293, “Inhibitors of KEAP1-Nrf2 protein-protein interaction” (2022)
